Experimental data from patent US20210238136A1, “AZETIDINE DERIVATIVE, AND PRODRUG THEREOF” (DAIICHI SANKYO COMPANY, LIMITED, priority 2018, published 2021).

What was measured:
[1] = tested on: IFN-α production in mouse splenocytes (pDC activation by CpG-ODN D35); assay: IFN-α production in mouse splenocytes stimulated with TLR9 ligand CpG-ODN D35; format: cell-based, mouse (C57BL/6J); settings: for IC50: Splenocyte, mouse splenocytes, CpG-ODN D35 1 μM, 24 hours of culture, ELISA; for effect on IFN-α production: test substances added at 1 nM to 300 nM
Method: The test substances were added at concentrations of 1 nM to 300 nM.
Effect of Test Substance on IFN-α Production in Mouse Splenocytes
Production of IFN-α by TLR9 ligand CpG-ODN D35 stimulation activating pDC was evaluated. Splenocytes were prepared from euthanized C57BL/6J mice in the same way as Test Example 1. Splenocytes were seeded into 96-well round-bottom plates, and test substance was added, and then the plates were preincubated for 30 minutes. Then, CpG-ODN D35 (final concentration 1 μM) was added, and the cells were cultured at 37° C. under 5% CO2. After 24 hours of culture, the culture supernatant was collected, and the IFN-α concentration in the supernatant was measured with an ELISA kit (Mouse IFN-alpha Platinum ELISA Kit, eBioscience). The relative value of the IFN-α concentration of each well when the IFN-α production of the test substance-free group was set as 100% and the amount of the non-stimulated group as 0% (IFN-α production rate, % of vehicle) was calculated. The relative value of the IFN-α concentration was incorporated into analysis software Prism (Version 5.0, GraphPad Software), the “Nonlinear Regression Log (inhibitor) vs Reaction Variable Inclination” was selected for each compound, and then sigmoid fitting with restrictions of Bottom=0 and Top=100 was performed to create a graph of the concentration reaction curve and calculate 50% inhibitory concentration (IC50).

[2] = tested on: activated T cells (CD4+ T cells from mouse spleen); assay: 3H-thymidine uptake in activated T cells; format: cell-based, mouse (C57BL/6J); settings: T-cell; mouse spleen CD4+ T cells activated with Dynabeads Mouse T-Activator CD3/CD28; read-out: IC50 (3H-thymidine uptake, proliferation of activated T cells)
Method: Effect of Test Substance on ^3H-Thymidine Uptake in Activated T Cells
The effect of test substance on ^3H-thymidine uptake by activation was evaluated using T cells from mouse spleen. The spleen was removed from euthanized C57BL/6J mice, and finely sliced, then triturated on a cell strainer (40 μm mesh), and cells were collected by centrifugation. The collected splenocytes were treated with Cold lyser containing 0.17 M NH4Cl for 5 minutes to hemolytically remove red blood cells and then washed. The resulting cells were used as the splenocytes. From the splenocytes, CD4+ T cells were isolated using an EasySep Mouse CD4+ T cell isolation kit (STEMCELL Technologies Inc.). The CD4+ T cells were seeded into 96-well round-bottom plates. To the plates, test substance or Vehicle was added, and Dynabeads Mouse T-Activator CD3/CD28 (Thermo Fisher Scientific Inc.) was added, then the cells were cultured at 37° C. under 5% CO2. After 24 hours of culture, ^3H-Thymidine (PerkinElmer Inc.) diluted with medium was added to each well, then the cells were further cultured at 37° C. under 5% CO2 overnight. To measure ^3H-Thymidine uptake into the nuclei of the cells, the cells were collected into filter plates UniFilter-96 GF/B (PerkinElmer Inc.) using a FilterMate Universal Harvester (PerkinElmer Inc.). The filter plates were placed in a dryer and left still for 2 hours or more. Then, scintillation cocktail MicroScint-O (PerkinElmer Inc.) was added to the plates, and radioactivity was measured with TopCount NXT (PerkinElmer Inc.). With the radioactivity of the test substance-free group set as 100% and the radioactivity of the non-activation group as 0%, the relative value (proliferation rate, % of vehicle) of the radioactivity of each well to which test substance was added was calculated. The value of % of vehicle was incorporated into analysis software Prism (Version 5.0, GraphPad Software), the “Nonlinear Regression Log (inhibitor) vs Reaction Variable Inclination” was selected, and then sigmoid fitting with restrictions of Bottom=0 and Top=100 was performed to calculate 50% inhibitory concentration (IC50).

[3] = Pharmacokinetic test of prodrug compounds in mouse; format: in vivo, females, non-fasting); settings: female, C57BL/6J; mouse plasma, IV 1 mg/kg of the active compound; read-out: AUClast after IV administration
Method: For prodrug compounds, the compounds of Examples 44, 103, and 104 (active compound of these is the compound of Example 41) and the compounds of Examples 89, 94, and 97 (active compound of these is the compound of Example 42), the plasma concentrations of the active compounds after oral administration to mice were measured, and various PK parameters were calculated. The method was as follows:
To C57BL/6J mice (females, non-fasting), the Example compounds were administered and blood sampling was performed under the following conditions.
Intravenous (IV): 1 mg/kg (n=2, 10% HP-β-CD dissolved in Saline/DMSO=95/5, v/v) Oral (PO): 10 mg/kg (n=2, 0.5% HPC dissolved in water)
After blood sampling, plasma was obtained by centrifugation, and to 10 μL of the obtained plasma, an equal amount of DMSO was added. […] The obtained samples were measured and quantitatively analyzed using MassLynx (version 4.1, Waters Corporation) under the following conditions.
From the plasma concentration measurements of the obtained active compound, the following PK parameters were calculated using Moment (Microsoft Excel).
AUClast: Area under plasma concentration-time curve to the last quantifiable time point Cmax: Maximum plasma concentration

Row | SMILES | IC50 [1] | effect on IFN-α production [1] | IC50 [2] | AUC(0-t) [3]
1 | N[C@@H](Cc1cccc(S(=O)(=O)N2CC(Oc3ccc(F)cc3)(c3ccccc3)C2)c1)C(=O)O [Example 41, (S)-2-Amino-3-(3-((3-(4-fluorophenoxy)-3-phenylazetidin-1-yl)sulfonyl)phenyl)propanoic acid] | 21 nM | concentration-dependent suppression effects | 5.1 nM | 0.728 µg·h/mL
2 | N[C@@H](Cc1cccc(S(=O)(=O)N2CC(Oc3cccc(F)c3)(c3ccccc3)C2)c1)C(=O)O [Example 42, (S)-2-Amino-3-(3-((3-(3-fluorophenoxy)-3-phenylazetidin-1-yl)sulfonyl)phenyl)propanoic acid] | 13 nM | concentration-dependent suppression effects | 4.1 nM | 0.499 µg·h/mL
